Like-named read-outs stand apart in the source and are kept apart here.
How the values were obtained:
[1] = LLC-PK1 MOCK/MDR1 monolayer model, results stated for both cell lines jointly; settings: pig
Protocol: Monitoring of TEER value and LY permeability. After the LLC-PK1 MOCK/MDR1 cells attach to the Transwell insert, TEER (Transepithelial Electrical Resistance) values were continuously recorded using a cell resistance meter (Beijing JINGONGHONGTAI Technology Co., Ltd). These TEER values represent the mean from six individual inserts (n = 6) measured per group. The TEER measurement and transport experiment were conducted at 37 °C, using a heating plate to maintain the required temperature. The transmembrane resistance was calculated using the formula TEER = (Rtotal-Rblank) × Aarea, where Rblank represents the TEER of the blank chamber.
The permeability of the Lucifer Yellow CH Dipotassium Salt (LY, 100 μM) across the monolayers was measured in apical-to-basolateral direction to monitor the integrity of the cell monolayer.
Bidirectional transport experiments. […] The transwell experiments were conducted following above-mentioned procedure.

[2] = design: method as in not given; settings: stated without method; ref not given; cited from earlier work
[3] = cited from earlier work
[4] = Bidirectional transport across LLC-PK1 MOCK monolayer (Transwell); settings: pig;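 also: compound quantified by LC-MS/MS in donor and receiver wells, efflux ratio as B-A over A-B Papp, recovery relative to initial donor amount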
Protocol: (§3) Cells were passaged at 80−90% confluence (every 2−3 days) using trypsin-EDTA solution. […] The culture medium was replaced every other day, including 200 µL culture medium in the apical and 850 µL cell culture medium in the basolateral side. LLC-PK1 MOCK cells were used at passages of 3−30. LLC-PK1-MDR1 cells were cultured and passaged in the same manner as LLC-PK1 cells except at the density of 1 × 10^4 cells per well. LLC-PK1-MDR1 cells were used at passages of 3−25. For LLC-PK1 MOCK cells and LLC-PK1-MDR1 cells, the experiments were performed on the 4th and 7th day after seeding.
(§4) Samples were collected from the donor well at the start of the incubation (50 µL) as C0, and from the donor and receiver wells at the end of the incubation (50 µL). All samples were stored at - 40 °C for LC-MS/MS analysis.
(§5) Bidirectional transport experiments. […] The transwell experiments were conducted following above-mentioned procedure. […] When the recovery rate of the tested drug is below 80%, the possibility of intracellular accumulation should be considered. The polycarbonate (PC) membrane where cells are grown should be carefully peeled off from the cell culture medium and placed in 100 µL of HBSS buffer solution. […] The process was carried out on ice to prevent heat-induced degradation, applying a power in the range of 300 W for a total duration of 20 minutes. Thereafter, a quantitative analysis of the intracellular drug was conducted, and the drug recovery rate was recalculated based on this analysis.
(§6) The apparent permeability coefficient (Papp, cm/s) was calculated for each transport direction, A-B and B-A, using the following equation: Papp=dQ/dt×1/A×C0 where dQ/dt is the permeation rate (µmol/s), A is the surface area of the insert (0.33 cm^2, Corning), and C0 is the initial donor concentration (µM).
(§7) The efflux ratio (ER) is calculated as the ratio of Papp (B-A)/Papp (A-B). Recovery=TRcumrf+Cdf×VD/Cdi×VD×100% Where TRcumrf is the cumulative transported mass in the receiver chamber at the end of the incubation (nmol), Cdf is the concentration of the drug in the donor chamber at the end of the incubation (μM), VD is the volume of the donor chamber (mL), and Cdi is the initial concentration of the drug in the donor chamber (μM).
(§8) The method of the bidirectional transport experiment was the same as before.

P-gp (human MDR1) [5] = experiment: Bidirectional transport across LLC-PK1-MDR1 monolayer stably expressing human MDR1 (P-gp) (Transwell); settings: pig;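 also: 2 h incubation at 37 °C, receiver HBSS with 10 mM Hepes plus 1% BSA, LC-MS/MS of donor and receiver, recovery as receiver plus donor amount over initial donor amount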
Protocol: (§9) The overexpression and functional activity of P-glycoprotein (P-gp) in the LLC-PK1-MDR1 cells were rigorously validated through multiple methods.
as §3
(§10) Monitoring permeability of positive control drugs. […] Samples were collected from the donor well at the start of the incubation (50 µL) as C0, and from the donor and receiver wells at the end of the incubation (50 µL). All samples were stored at - 40 °C for LC-MS/MS analysis.
as §5, §6, §7, §8

in vitro [6] = experiment: in vitro
Protocol: (§1) Stocks (10 mM) of test compounds were diluted to 5 μM with plasma or tissue homogenate and dialyzed at 37 °C for 6 hours in a shaking incubator. After incubation aliquots of both plasma or tissue homogenate and buffer from the device were taken and added to equal volumes of blank buffer and plasma or tissue homogenate respectively. Samples were then diluted in acetonitrile containing an internal standard prior to centrifugation and analysis of the supernatants by LC-MS/MS. The fu, plasma was calculated using Equation 1:(1) fu,plasma=Concbuffer chamber/Concsample chamber
(§2) Unbound fractions of test drugs in plasma (fu,plasma) and brain tissue (fu,brain). For compounds with existing rat plasma or brain protein-binding data from literature or internal studies, values were directly adopted.

in vivo = settings: rat
Excerpt: In vivo unbound brain distribution data (Kp,uu,Brain) for 16 drugs and total brain distribution data (Kp,Brain) for 16 drugs was acquired from literature. […] For each tested compound, fifteen rats were randomly divided into five groups of three rats each. […] The time of execution of the rats by CO2 inhalation after administration was optimized according to the in vivo elimination rate to achieve five concentrations of different time points. After the rats were euthanized, cardiac puncture was performed immediately to remove as much whole blood as possible (~7 ml) from the systemic circulation (Quantitatively aliquot 0.2 ml of whole blood for the determination of drug concentration in plasma). Afterwards, the brain tissue was collected immediately and rinsed repeatedly with ice-cold saline 3 times. Then, the surface saline was blotted dry with clean filter paper to remove as much residual drug in the blood vessels as possible. Plasma samples were prepared by centrifugation of the blood samples at 2,500 g for 10 minutes at 4 °C. All brain samples were homogenized by adding 4-fold volume water. All samples were stored at -40 °C before LC-MS/MS analysis. […] The brain tissue partition coefficient (Kp, brain) and brain-to-plasma unbound drug partition ratio (Kp,uu, brain) are calculated according to the following formulas, respectively: Kp,brain=AUC(0−∞,brain)/AUC(0−∞,plasma)Kp,uu,brain=Kp,brain×(fu,tissue/fu,plasma)
Free brain-to-plasma distribution coefficients (Kp,uu,brain) of 41 drugs. Brain distribution coefficients (Kp,uu,brain) were calculated for 41 drugs. […] Plasma and brain concentration-time profiles were generated, and AUC(0-t) values for both matrices were calculated using WinNolin 8.1. Kp,brain was derived as the ratio of brain-to-plasma AUC(0-t).
Kp,uu,brain values were computed by normalizing Kp,brain to unbound fractions (fu,plasma and fu,brain).

in vitro [7] = settings: pig; for recovery at 2 h, 2 µM: pH 7.4
Protocol: as §3, §4, §5, §6, §7, §8

in vitro [8] = experiment: in vitro; remark: listed apart in the source
Protocol: as §1
Rat fraction unbound in brain (fu, brain) was determined as the ratio of concentration in buffer to that in brain.
as §2

P-gp (human MDR1) [9] = experiment: in vitro; settings: pig, LLC-PK1, pH 7.4
Protocol: as §9, §3, §10, §5, §6, §7, §8

[10] = cited from earlier work; remark: listed apart in the source
[11] = LLC-PK1 MOCK cell monolayer (Transwell)
[12] = LLC-PK1, pH 7.4, Papp A-B, LLC-PK1 MOCK, 2 µM, 2 h, mean ± s, n = 3, BLQ = below 2 nM
[13] = LLC-PK1, pH 7.4, Papp A-B, LLC-PK1-MDR1, 2 µM, 2 h, mean ± s, n = 3
[14] = footnote b, species not stated, ref https://go.drugbank.com

| SMILES | Papp A→B at 2 h, 2 µM ([4]; LLC-PK1, pH 7.4) [×10⁻⁶ cm/s] | Papp B→A at 2 h, 2 µM ([4]; LLC-PK1, pH 7.4) [×10⁻⁶ cm/s] | Papp A→B at 2 h, 2 µM (P-gp (human MDR1) [5]; LLC-PK1, pH 7.4) [×10⁻⁶ cm/s] | Papp B→A at 2 h, 2 µM (P-gp (human MDR1) [5]; LLC-PK1, pH 7.4) [×10⁻⁶ cm/s] | fraction unbound at 6 h, 5 µM (in vitro [6]; rat, plasma) | recovery at 2 h, 2 µM (in vitro [7]; [11]) [%] | fraction unbound at 6 h, 5 µM (in vitro [8]; rat, brain homogenate) | Papp A→B at 2 h, 2 µM [4, 12] [×10⁻⁶ cm/s] | Kp uu (in vivo; SD, iv, 1 mg/kg) | Kp (in vivo; SD, iv, 1 mg/kg, Kp, Brain) | recovery at 2 h, 2 µM (P-gp (human MDR1) [9]) [%] | efflux ratio at 2 h, 2 µM ([4]; LLC-PK1, pH 7.4) | efflux ratio at 2 h, 2 µM (P-gp (human MDR1) [5]; LLC-PK1, pH 7.4) | further results |
| --- | --- | --- | --- | --- | --- | --- | --- | --- | --- | --- | --- | --- | --- | --- |
| COc1ccc2cc1Oc1ccc(cc1)C[C@H]1c3cc(c(OC)cc3CCN1C)Oc1c(OC)c(OC)cc3c1[C@H](C2)N(C)CC3 [Tetrandrine] | 3.15 ± 0.23 | 4.19 ± 0.77 | 1.55 ± 0.29 | 13 ± 2.24 | – | – | – | – | – | – | – | – | – | recovery at 2 µM ([1]; pH 7.4, Recovery after cell lysate extraction, intracellular drug included): > 80%; recovery at 2 µM ([1]; pH 7.4, Recovery, bidirectional transport, uncorrected): < 80%; recovery at 2 µM ([1]; pH 7.4, Recovery, with 1 µM Bafilomycin A1, bidirectional transport): 80 to 120%; pKa [2]: > 7; Kp, Brain ([3]; ref Wang [2024]): 24.3; Kp,uu,Brian ([3]; ref Wang [2024]): 0.80; efflux ratio at 2 h, 2 µM ([4]; LLC-PK1, pH 7.4, ER, LLC-PK1 MOCK, Papp (B-A)/Papp (A-B)): 1.33; recovery at 2 h, 2 µM ([4]; pH 7.4, Recovery after correction of intracellular accumulation data, A-B, LLC-PK1 MOCK, cell lysate included, mean±SD, n=3): 54.1 ± 7.24%; recovery at 2 h, 2 µM ([4]; pH 7.4, Recovery after correction of intracellular accumulation data, B-A, LLC-PK1 MOCK, cell lysate included, mean±SD, n=3): 93.5 ± 6.72%; efflux ratio at 2 h, 2 µM (P-gp (human MDR1) [5]; LLC-PK1, pH 7.4, ER, LLC-PK1-MDR1, Papp (B-A)/Papp (A-B)): 8.4 |
| Cn1c(=O)c2c(ncn2C)n(C)c1=O [Caffeine] | – | 34.1 ± 1.49 | – | 33.3 ± 1.49 | 0.772 | 121 ± 2.48 | 0.719 | 34 ± 1.22 | – | – | – | – | – | Kp uu (in vivo): 0.576; Kp, Brain ([3]; ref Bohnert [2016]): 0.618; Papp A→B at 2 h, 2 µM (P-gp (human MDR1) [5]; [13]): 36.4 ± 1.42 ×10⁻⁶ cm/s |
| Cc1cc(=O)n(-c2ccccc2)n1C [Antipyrine] | – | 23.6 ± 1.43 | 30.9 ± 1.46 | 28.9 ± 1.75 | – | – | 0.809 | 31.4 ± 3.13 | 0.72 | 0.755 | 113 ± 1.41 | – | – | Protein binding in plasma (in vitro [6]; rat, 6 h, 5 µM): 15.0 ± 5.22%; recovery at 2 h, 2 µM ([4]; LLC-PK1 MOCK cell monolayer (Transwell), pH 7.4, Recovery A-B, LLC-PK1 MOCK, 2 µM, 2 h, n = 3): 116 ± 7.41%; recovery at 2 h, 2 µM ([4]; LLC-PK1 MOCK cell monolayer (Transwell), pH 7.4, Recovery B-A, LLC-PK1 MOCK, 2 µM, 2 h, n = 3): 95.2 ± 2.32% |
| COCCOC(=O)C1=C(C)NC(C)=C(C(=O)OC(C)C)C1c1cccc([N+](=O)[O-])c1 (stereo not drawn) [Nimodipine] | – | 46.2 ± 1.79 | 32.2 ± 1.83 | 44.5 ± 5.11 | – | 109 ± 7.08 | < 0.01 | 33.7 ± 2.08 | – | – | 114 ± 5.22 | 1.37 | 1.39 | Protein binding in plasma [10, 14]: 95.0^b %; Kp uu (in vivo): < 0.451; Kp, Brain ([3]; ref Li [2020]): 2.25 |
| Cc1ncc2n1-c1ccc(Cl)cc1C(c1ccccc1F)=NC2 [Midazolam] | 24.7 ± 0.41 | 31.6 ± 5.1 | 29.5 ± 1 | 27 ± 2.23 | – | – | – | – | – | – | 100 ± 3 | 1.32 | 0.91 | Protein binding in plasma ([10]; footnote a, ref Internal data): 97.0^a %; Kp uu (in vivo; in vivo): 1.42; recovery at 2 h, 2 µM (in vitro [7]): 99.6 ± 1.73%; Kp, Brain ([3]; footnote a, ref Internal data): 2.44^a; fraction unbound at 6 h, 5 µM (in vitro [8]): 0.022 |
| CC[C@]1(O)C[C@@H]2CN(CCc3c([nH]c4ccccc34)[C@@](C(=O)OC)(c3cc4c(cc3OC)N(C)[C@H]3[C@@](O)(C(=O)OC)[C@H](OC(C)=O)[C@]5(CC)C=CCN6CC[C@]43[C@@H]65)C2)C1 [Vinblastine] | – | 4.16 ± 0.32 | 2.84 ± 0.27 | 20.4 ± 1.81 | 0.06 | 86.5 ± 1.69 | < 0.01 | 4.33 ± 0.21 | < 0.088 | 0.528 | 103 ± 9.03 | 0.96 | 7.2 | – |
| COc1ccc2[nH]c([S+]([O-])Cc3ncc(C)c(OC)c3C)nc2c1 (stereo not drawn) [Omeprazole] | – | 28.9 ± 1.39 | – | 41.5 ± 2.92 | 0.045 | – | 0.321 | 34.2 ± 0.55 | – | – | 113 ± 1.46 | – | – | Kp uu (in vivo): 1.09; Kp, Brain ([3]; ref Cheng et al. [2002]): 0.15; Papp A→B at 2 h, 2 µM (P-gp (human MDR1) [5]; [13]): 25.4 ± 0.66 ×10⁻⁶ cm/s |
| CCOc1ccc(NC(C)=O)cc1 [Phenacetin] | – | – | 36.6 ± 2.48 | 29 ± 1.19 | 0.416 | – | 0.419 | 35.2 ± 0.08 | 0.768 | 0.763 | – | – | – | Papp B→A at 2 h, 2 µM (in vitro [7]; LLC-PK1, pH 7.4): 27.2 ± 1.32 ×10⁻⁶ cm/s |
| COc1ccc2c(c1)[C@]13CCCC[C@@H]1[C@H](C2)N(C)CC3 [Dextromethorphan] | 35.5 ± 2.09 | 25.9 ± 0.91 | 18.8 ± 0.12 | 21.9 ± 3.18 | – | – | – | – | – | – | 93.6 ± 6.54 | 0.73 | 1.17 | fraction unbound at 6 h, 5 µM (in vitro [6]): 0.35; Kp (in vivo; SD, in vivo, iv, 1 mg/kg): 11.5; Kp uu (in vivo; SD, in vivo, iv, 1 mg/kg): 0.825; fraction unbound at 6 h, 5 µM (in vitro [8]): 0.033 |
| NC(=O)C[S+]([O-])C(c1ccccc1)c1ccccc1 (stereo not drawn) [Modafinil] | 20.2 ± 0.98 | 15.6 ± 0.22 | 22.7 ± 0.45 | 23.9 ± 0.91 | – | – | – | – | – | – | 107 ± 3.4 | 0.78 | 1.05 | Protein binding in plasma [10, 14]: 60^b %; Kp (in vivo; SD, in vivo, iv, 1 mg/kg): 0.71; Kp uu (in vivo; SD, in vivo, iv, 1 mg/kg): 0.547; recovery at 2 h, 2 µM (in vitro [7]): 106 ± 2.03%; fraction unbound at 6 h, 5 µM (in vitro [8]): 0.308 |
| COc1cc([C@@H]2c3cc4c(cc3[C@@H](O[C@@H]3O[C@@H]5CO[C@@H](C)O[C@H]5[C@H](O)[C@H]3O)[C@H]3COC(=O)[C@H]23)OCO4)cc(OC)c1O [Etoposide] | – | 0.16 ± 0.02 | 0.75 ± 0.1 | 3.68 ± 0.22 | – | 106 ± 0.11 | < 0.01 | – | – | 0.025 | 100 ± 2.47 | – | – | Protein binding in plasma [10, 14]: 97.0^b %; Kp (in vivo; SD, iv, 1 mg/kg, Kp,uu,Brian): 0.008 |
| CN/C(=N/CCSCc1nc[nH]c1C)NC#N [Cimetidine] | – | 0.28 ± 0.07 | – | 33.9 ± 4.3 | 0.722 | 96.9 ± 13.3 | 0.655 | 0.69 ± 0.07 | 0.008 | 0.007 | 87.4 ± 9.65 | – | – | Papp A→B at 2 h, 2 µM (P-gp (human MDR1) [5]; [13]): 1.32 ± 0.31 ×10⁻⁶ cm/s |
